Where two headings read alike, the source gives them in different places.
Legend:
[1] = test system: CYP 2C19; conditions: cited from earlier work
[2] = test system: P-glycoprotein (P-gp); conditions: cited from earlier work
[3] = test system: CYP 1A2; conditions: cited from earlier work
[4] = cited from earlier work
[5] = rats; cited from earlier work
[6] = cited from earlier work; remark: listed apart in the source
[7] = test system: human plasma proteins; conditions: independent of drug concentration over 100–2000 ng ml^−1; cited from earlier work
[8] = monkeys; cited from earlier work
[9] = test system: cytochrome P450 (CYP) 2C8; conditions: cited from earlier work
[10] = test system: CYP 3A4; conditions: cited from earlier work
[11] = humans; cited from earlier work
[12] = Simulation of steady state exposure from the final population PK model (sensitive plot); format: in vivo, human; conditions: for AUC / Cmax: human, plasma, oral, 100 mg, 100 mg once daily for 12 weeks
Protocol: Individual empirical Bayes estimates PK parameters from the final model were used to predict the steady state exposure of yimitasvir. The simulated dosing regimen was yimitasvir 100 mg once daily for 12 consecutive weeks. […] The steady state exposure was calculated using PK parameters with incorporation of the isolated effect from the covariate and with other unaffected PK parameters fixed to the typical value.

[13] = Phase 1b study in patients with chronic HCV genotype 1 infection; format: in vivo, human; conditions: evening after dinner for more than 4 h
Protocol: Yimitasvir is a novel, oral HCV non-structural protein 5A (NS5A) inhibitor for the treatment of chronic HCV genotype 1 infection in combination with sofosbuvir. The pharmacokinetic profile of yimitasvir has been evaluated in healthy volunteers and patients with chronic HCV infection ([Zhang et al., 2018]; [Zhao et al., 2019]). Following fasted single oral dose of yimitasvir in healthy volunteers, yimitasvir was absorbed with a peak concentration (Cmax) 3.5–4.0 h post-dose. […] Yimitasvir was approximately 79.2–86.6% bound to human plasma proteins and the binding was independent of drug concentration over the range of 100–2000 ng ml^−1. No metabolism of yimitasvir was detected in vitro during incubations with hepatic microsomes from mice, rats, dogs, monkeys and humans. […] Steady state was achieved by day 5 following the once daily dosing regimen. […] Yimitasvir is a substrate and inhibitor of the drug transporter P-glycoprotein (P-gp).
The current population PK analysis of yimitasvir was performed using rich and sparse PK samples collected from six clinical pharmacology trials [4 phase 1 ([Zhao et al., 2019]), 1 phase 1b ([Zhang et al., 2018]) and 1 phase 2 studies] in Chinese healthy volunteers and HCV-infected patients. […]

[14] = dogs; cited from earlier work
[15] = high-fat meal, food effect study, ref Zhao et al., 2019
[16] = in the evening after dinner more than 4 h

SMILES: COC(=O)NC(C(=O)N1CCCC1c1ncc(-c2ccc(-c3ccc(-c4ccc5nc(C6CCCN6C(=O)C(NC(=O)OC)C(C)C)[nH]c5c4)c4c3C3CCC4C3)cc2)[nH]1)C(C)C (stereo not shown) [yimitasvir]
- Inhibition of CYP2C19 [1]: does not inhibit
- P-gp inhibition [2]: inhibitor
- P-gp substrate [2]: substrate
- Inhibition of CYP1A2 [3]: does not inhibit
- Decrease in AUC [4, 15]: ~50%
- Decrease in Cmax [4, 15]: ~63%
- Tmax ([4]; high-fat meal, ref Zhao et al., 2019): 5 to 12 h
- Terminal half-life (t1/2) ([4]; human, in vivo): 13.4 to 19.7 h
- Dose proportionality of exposure ([4]; multiple ascending dose study, 100–400 mg once daily for seven days): less than dose-proportional
- Steady state achieved ([4]; once daily dosing regimen): ≤ 5 days
- Accumulation ratio ([4]; once daily dosing): 1.32–1.34
- Major route of elimination ([4]; ref Zhao et al., 2019): fecal excretion of parent drug
- Dose proportionality of AUC and Cmax ([4]; single ascending dose study, healthy volunteers, ref Zhao et al., 2019): increased less than proportionally
- Recovered in urine as the parent drug ([4]; through 7 days post-dose, ref Zhao et al., 2019): Less than 0.04%
- Metabolism in hepatic microsomes [5]: No metabolism
- Solubility profile [6]: pH-dependent solubility profile
- Bound to human plasma proteins [7]: 79.2–86.6%
- Metabolism in hepatic microsomes [8]: No metabolism
- Inhibition of CYP2C8 [9]: weak inhibitor
- Inhibition of CYP3A4 [10]: does not inhibit
- Metabolism in hepatic microsomes [11]: No metabolism
- Decrease in Cmax,ss ([12]; after a high-fat meal, model simulated): 58.9%
- Magnitude of ALT on the steady-state exposure ([12]; healthy volunteers with extreme ALT values (5th and 95th percentiles) relative to typical): ~30%
- AUC ([12]; empirical Bayes estimates, lower end of range, read-out: AUCss, 5th percentile of the population): 3260 ng·h/mL
- AUC ([12]; empirical Bayes estimates, upper end of range, read-out: AUCss, 95th percentile of the population): 17400 ng·h/mL
- Cmax ([12]; lower end of range, read-out: Cmax,ss, 5th percentile of the population): 182 ng/mL
- Cmax ([12]; upper end of range, read-out: Cmax,ss, 95th percentile of the population): 1270 ng/mL
- Decrease in AUCss [12, 16]: 28.9%
- Decrease in Cmax,ss [12, 16]: 46.1%
- Decrease in Ctrough,ss [12, 16]: 10.0%
- Steady state exposures (AUCss, Ctrough,ss, Cmax,ss) higher in female than male subjects ([12]; in vivo): 15.1–54.0%
- AUC ([12]; male, typical subject: male, healthy volunteer, fasted 10 h, ALT=31.6 IU l^-1, read-out: AUCss, base): 7250 ng·h/mL
- Cmax ([12]; male, typical subject: male, healthy volunteer, fasted 10 h, ALT=31.6 IU l^-1, read-out: Cmax,ss, base): 540 ng/mL
- Difference in exposures between patients and healthy volunteers ([12]; steady state): no difference in exposures
- Decrease in Ctrough,ss ([12]; with a high-fat meal): 3.52%
- AUC decrease compared to phase 1 SAD trial [13]: 40%
- Metabolism in hepatic microsomes [14]: No metabolism
